The source of these data is patent EP1245247A1, “Biocidal locks” (Biolink Corporation, priority 2001, dated 2002).

The subject of one data set is S. epidermis. Conditions: cited from earlier work.
The conditions of data set [1]: mouse, in vivo; cited from earlier work.
The conditions of data set [2]: mice; cited from earlier work.
A further data set concerns E. coli. Conditions: intravenous 0.2 mL of a 20% solution in sterile 5% polyvinyl pyrrolidone; intraperitoneal E. coli; cited from earlier work.
For another data set, the system named is blood. Briefly: Clotting of pig blood collected into containers holding taurolidine solution (Example 1). Conditions: pig blood filled up to the 30 mL level; inspected after 30 minutes. The method, then: A 0.5% solution of taurolidine in Ringer-lactate solution (Thomae, Biberach, Germany) was introduced into each of four polyethylene bottles having a 30 mL volume. Filling volumes were 5, 10, and 15 mL. One bottle was filled with 5 mL of the taurolidine solution and 2 mL ACD-A (Fresenius, Bad Homburg, Germany) solution. ACD-A solution is used for the conservation of whole blood and contains per liter: 22.0 grams of sodium citrate dihydrate, 7.3 grams of citric acid and 34.5 grams of glucose monohydrate.
Blood was collected at a slaughter house from a female pig directly from the slaughter wound into the containers that were then filled up to the 30 mL level. The containers were capped and gently moved to mix blood with the solution. The containers were inspected after 30 minutes. Blood in the containers containing only taurolidine was clotted, but the blood in the container containing the mixture of taurolidine and ACD-A was not clotted.

For data set [3], the system named is Vancomycin-Intermediate Susceptibility Staphylococcus Aureus (VISA) and Methicillin-Resistant Staphylococcus Aureus (MRSA). Conditions: range pH 7.0 to pH 5.0; cited from earlier work.
The test system of the next data set is B. fragilis. The conditions noted are these: intravenous 0.2 mL of a 20% solution in sterile 5% polyvinyl pyrrolidone; intraperitoneal B. fragilis; cited from earlier work.

Structures are written as SMILES.

`O=C([O-])CN(CCN(CC(=O)[O-])CC(=O)O)CC(=O)O.[Na+].[Na+]` [disodium EDTA]: in the data set on S. epidermis (initial inoculum of 10^3 CFU of staphylococci per mL, in 24 hours), the bactericidal concentration was 20 mg/mL.
As to `CN[C@H](CC(C)C)C(=O)N[C@H]1C(=O)N[C@@H](CC(N)=O)C(=O)N[C@H]2C(=O)N[C@H]3C(=O)N[C@H](C(=O)N[C@H](C(=O)O)c4cc(O)cc(O)c4-c4cc3ccc4O)[C@H](O)c3ccc(c(Cl)c3)Oc3cc2cc(c3O[C@@H]2O[C@H](CO)[C@@H](O)[C@H](O)[C@H]2O[C@H]2C[C@](C)(N)[C@H](O)[C@H](C)O2)Oc2ccc(cc2Cl)[C@H]1O` [Vancomycin], the bactericidal dose in the data set with S. epidermis (initial inocula of 10^3 CFU/mL) was 6.7 µg/mL.
Consider `O=S1(=O)CCN(CN2CCS(=O)(=O)NC2)CN1` [taurolidine, bis-(1,1-dioxo-perhydroxy-1,2,4-thiadiazin-4-yl)methane], for which the teratogenicity entry in data set [1] was “non-teratogenic”. In addition, the “intraperitoneal LD50” value in data set [2] was about 1500 mg/kg. Moreover, the mortality rate entry with E. coli and in the data set with B. fragilis was “very significantly reduce the mortality rate” each time. For the same compound, in the data set on blood, the “Blood clotting in the containers” value is listed as “clotted”. In addition, the “dependence of activity on pH” value in data set [3] is listed as “activity increases with decreasing pH”.
